# Results: ChEMBL document CHEMBL1130984, “Substrate specificity of human prolyl-4-hydroxylase” (Bioorg Med Chem Lett, 1998)
# Columns and labels:
# [1] = target: T1, Transmembrane prolyl 4-hydroxylase (Homo sapiens, UniProt Q9NXG6); experiment: Compound was tested for inhibition of the enzyme human proline-4-hydroxylase; No inhibition
# T1 sequence (Q9NXG6 whole entry): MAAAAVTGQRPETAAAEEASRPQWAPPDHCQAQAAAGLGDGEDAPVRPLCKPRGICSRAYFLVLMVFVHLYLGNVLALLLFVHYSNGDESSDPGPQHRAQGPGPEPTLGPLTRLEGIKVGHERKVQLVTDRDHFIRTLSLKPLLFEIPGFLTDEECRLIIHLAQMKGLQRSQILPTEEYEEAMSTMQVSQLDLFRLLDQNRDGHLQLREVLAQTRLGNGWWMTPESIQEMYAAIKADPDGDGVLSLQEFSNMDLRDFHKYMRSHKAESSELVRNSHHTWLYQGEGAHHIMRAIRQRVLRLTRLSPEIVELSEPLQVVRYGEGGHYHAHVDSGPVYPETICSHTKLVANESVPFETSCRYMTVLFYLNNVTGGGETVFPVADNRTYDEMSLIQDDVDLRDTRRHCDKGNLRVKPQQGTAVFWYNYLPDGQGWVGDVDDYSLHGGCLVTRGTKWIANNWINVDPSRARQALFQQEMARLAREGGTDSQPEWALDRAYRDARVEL
# [2] = target: T2, Transmembrane prolyl 4-hydroxylase (Homo sapiens) (UniProt Q9NXG6); experiment: Compound was tested for substrate specificity of human proline-4-hydroxylase; Not a substrate
# T2 sequence (whole entry): T1 sequence (Q9NXG6 whole entry)
# [3] = target: T2, Transmembrane prolyl 4-hydroxylase (Homo sapiens); experiment: Compound was tested for substrate specificity of human proline-4-hydroxylase; Substrate
IC50 [1],Activity [2],Activity [3],Structure (SMILES)
Not Active,Not a substrate,,CCOC(=O)CNC(=O)[C@@H]1C(C)CCN1C(=O)[C@H](Cc1ccccc1)NC(=O)CNC(=O)OCc1ccccc1 (stereo partly specified)
Not Active,Not a substrate,,CCOC(=O)CNC(=O)[C@@H]1C(Cl)CCN1C(=O)[C@H](Cc1ccccc1)NC(=O)CNC(=O)OCc1ccccc1 (stereo partly specified)
Not Active,Not a substrate,,CCOC(=O)CNC(=O)[C@H]1N(C(=O)[C@H](Cc2ccccc2)NC(=O)CNC(=O)OCc2ccccc2)CCC12CC2
,,Substrate,CCOC(=O)CNC(=O)[C@@H]1C(F)CCN1C(=O)[C@H](Cc1ccccc1)NC(=O)CNC(=O)OCc1ccccc1 (stereo partly specified)
Not Active,Not a substrate,,CCOC(=O)CNC(=O)[C@@H]1CC(C)CN1C(=O)[C@H](Cc1ccccc1)NC(=O)CNC(=O)OCc1ccccc1 (stereo partly specified)
Not Active,Not a substrate,,CCOC(=O)CNC(=O)[C@@H]1C(Br)CCN1C(=O)[C@H](Cc1ccccc1)NC(=O)CNC(=O)OCc1ccccc1 (stereo partly specified)
